Converted amounts (≈) assume the structure as drawn.
Columns and labels:
Assay type in all cases: functional
[1] = system: Staphylococcus aureus; experiment: Antibacterial activity against Staphylococcus aureus assessed as bacterial growth inhibition by broth dilution method
[2] = system: Staphylococcus aureus; experiment: Antibacterial activity against multidrug-resistant Staphylococcus aureus clinical isolate assessed as bacterial growth inhibition by broth dilution method
[3] = system: Staphylococcus aureus; experiment: Potency index, ratio of Norfloxacin MIC to test compound MIC for antibacterial activity against Staphylococcus aureus assessed as bacterial growth inhibition by broth dilution method
[4] = system: Staphylococcus aureus; experiment: Antibacterial activity against Staphylococcus aureus 209p ATCC 6538P assessed as bacterial growth inhibition incubated for 1 to 2 days by serial dilution method; details: time 1-2 day
[5] = system: Staphylococcus aureus; experiment: Antibacterial activity against Staphylococcus aureus C-18 clinical isolate assessed as bacterial growth inhibition incubated for 1 to 2 days by serial dilution method; details: time 1-2 day
[6] = system: Staphylococcus aureus; experiment: Antibacterial activity against Staphylococcus aureus Viotko assessed as bacterial growth inhibition incubated for 1 to 2 days by serial dilution method; details: time 1-2 day
[7] = system: Pseudomonas aeruginosa; experiment: Antibacterial activity against Pseudomonas aeruginosa assessed as bacterial growth inhibition by serial dilution method
[8] = system: Staphylococcus aureus; experiment: Antibacterial activity against Staphylococcus aureus MTCC 737 assessed as bacterial growth inhibition by serial dilution method
[9] = system: Escherichia coli; experiment: Antibacterial activity against Escherichia coli MTCC 1687 assessed as bacterial growth inhibition by serial dilution method
[10] = system: Staphylococcus aureus; experiment: Potency index, ratio of Ciprofloxacin MIC to test compound MIC for antibacterial activity against Staphylococcus aureus MTCC 737 assessed as bacterial growth inhibition by serial dilution method
[11] = system: Pseudomonas aeruginosa; experiment: Potency index, ratio of Ciprofloxacin MIC to test compound MIC for antibacterial activity against Pseudomonas aeruginosa assessed as bacterial growth inhibition by serial dilution method
[12] = system: Escherichia coli; experiment: Potency index, ratio of Ciprofloxacin MIC to test compound MIC for antibacterial activity against Escherichia coli MTCC 1687 assessed as bacterial growth inhibition by serial dilution method
[13] = system: Staphylococcus aureus; experiment: Antibacterial activity against Staphylococcus aureus ATCC 43300 assessed as bacterial growth inhibition incubated for 24 hrs by CLSI based broth dilution method
[14] = system: Staphylococcus aureus; experiment: Antibacterial activity against Staphylococcus aureus ATCC 29213 assessed as bacterial growth inhibition incubated for 24 hrs by CLSI based broth dilution method
[15] = system: Staphylococcus aureus; experiment: Antibacterial activity against Staphylococcus aureus clinical isolate 144 assessed as bacterial growth inhibition incubated for 24 hrs by CLSI based broth dilution method
[16] = system: Staphylococcus aureus; experiment: Antibacterial activity against Staphylococcus aureus clinical isolate AD3 assessed as bacterial growth inhibition incubated for 24 hrs by CLSI based broth dilution method
[17] = system: Staphylococcus aureus; experiment: Potency index, ratio of Pleuromutilin MIC to test compound MIC for antibacterial activity against Staphylococcus aureus ATCC 43300 incubated for 24 hrs by CLSI based broth dilution method
[18] = system: Staphylococcus aureus; experiment: Potency index, ratio of Pleuromutilin MIC to test compound MIC for antibacterial activity against Staphylococcus aureus ATCC 29213 incubated for 24 hrs by CLSI based broth dilution method
[19] = system: Staphylococcus aureus; experiment: Potency index, ratio of Pleuromutilin MIC to test compound MIC for antibacterial activity against Staphylococcus aureus clinical isolate 144 incubated for 24 hrs by CLSI based broth dilution method
[20] = system: Staphylococcus aureus; experiment: Potency index, ratio of Pleuromutilin MIC to test compound MIC for antibacterial activity against Staphylococcus aureus clinical isolate AD3 incubated for 24 hrs by CLSI based broth dilution method
[21] = system: Staphylococcus aureus; experiment: Antibacterial activity against methicillin-resistant Staphylococcus aureus ATCC 43300 infected in neutropenic mouse model of thigh infection assessed as reduction in bacterial load at 20 mg/kg, iv measured after 24 hrs by colony counting method
[22] = system: Streptococcus pyogenes; experiment: Antibacterial activity against erythromycin-resistant Streptococcus pyogenes clinical isolate 2 assessed as bacterial growth inhibition incubated for 24 hrs by CLSI based broth microdilution method
[23] = system: Streptococcus pneumoniae; experiment: Antibacterial activity against erythromycin-resistant Streptococcus pneumoniae AB11 expressing ermB/mefA assessed as bacterial growth inhibition incubated for 24 hrs by CLSI based broth microdilution method
[24] = system: Streptococcus pneumoniae; experiment: Antibacterial activity against erythromycin-resistant Streptococcus pneumoniae B1 expressing ermB assessed as bacterial growth inhibition incubated for 24 hrs by CLSI based broth microdilution method
[25] = system: Staphylococcus aureus; experiment: Antibacterial activity against methicillin-resistant Staphylococcus aureus ATCC 43300 assessed as bacterial growth inhibition incubated for 24 hrs by CLSI based broth microdilution method
[26] = system: Staphylococcus aureus; experiment: Antibacterial activity against penicillin-resistant Staphylococcus aureus ATCC 31007 assessed as bacterial growth inhibition incubated for 24 hrs by CLSI based broth microdilution method
[27] = system: Staphylococcus aureus; experiment: Potency index, ratio of azithromycin MIC to test compound MIC for antibacterial activity against penicillin-resistant Staphylococcus aureus ATCC 31007 assessed as bacterial growth inhibition incubated for 24 hrs by CLSI based broth microdilution method
[28] = system: Staphylococcus aureus; experiment: Potency index, ratio of azithromycin MIC to test compound MIC for antibacterial activity against methicillin-resistant Staphylococcus aureus ATCC 43300 assessed as bacterial growth inhibition incubated for 24 hrs by CLSI based broth microdilution method
[29] = system: Streptococcus pneumoniae; experiment: Potency index, ratio of azithromycin MIC to test compound MIC for antibacterial activity against erythromycin-resistant Streptococcus pneumoniae B1 expressing ermB assessed as bacterial growth inhibition incubated for 24 hrs by CLSI based broth microdilution method
[30] = system: Streptococcus pneumoniae; experiment: Potency index, ratio of azithromycin MIC to test compound MIC for antibacterial activity against erythromycin-resistant Streptococcus pneumoniae AB11 expressing ermB/mefA assessed as bacterial growth inhibition incubated for 24 hrs by CLSI based broth microdilution method
[31] = system: Streptococcus pyogenes; experiment: Potency index, ratio of azithromycin MIC to test compound MIC for antibacterial activity against erythromycin-resistant Streptococcus pyogenes clinical isolate 2 assessed as bacterial growth inhibition incubated for 24 hrs by CLSI based broth microdilution method
[32] = system: Staphylococcus aureus; experiment: Antibacterial activity against Staphylococcus aureus clinical isolate assessed as bacterial growth inhibition by disk diffusion method
[33] = system: Escherichia coli; experiment: Antibacterial activity against Escherichia coli clinical isolate assessed as bacterial growth inhibition by disk diffusion method
[34] = system: Bacillus subtilis; experiment: Antibacterial activity against Bacillus subtilis ATCC 6633 assessed as bacterial growth inhibition incubated for 18 to 24 hrs by turbidimetry; details: time 18-24 hrs
[35] = system: Pseudomonas aeruginosa; experiment: Antibacterial activity against Pseudomonas aeruginosa assessed as bacterial growth inhibition
[36] = system: Escherichia coli; experiment: Antibacterial activity against Escherichia coli assessed as bacterial growth inhibition by serial dilution method
[37] = system: Bacillus subtilis; experiment: Antibacterial activity against Bacillus subtilis MTCC 441 assessed as bacterial growth inhibition incubated for 24 hrs by serial dilution method
[38] = system: Klebsiella pneumoniae; experiment: Antibacterial activity against Klebsiella pneumoniae NCDC 138 assessed as bacterial growth inhibition incubated for 24 hrs by serial dilution method
[39] = system: Bacillus subtilis; experiment: Antibacterial activity against Bacillus subtilis assessed as bacterial growth inhibition incubated for 24 hrs by serial dilution method
[40] = system: Salmonella enterica; experiment: Antibacterial activity against Salmonella enterica assessed as bacterial growth inhibition incubated for 24 hrs by serial dilution method
[41] = system: Staphylococcus aureus; experiment: Antibacterial activity against Staphylococcus aureus ATCC 25923 assessed as bacterial growth inhibition by broth microdilution method
[42] = system: Escherichia coli; experiment: Antibacterial activity against Escherichia coli ATCC 25922 assessed as bacterial growth inhibition by broth microdilution method
[43] = system: Staphylococcus aureus; experiment: Antibacterial activity against Staphylococcus aureus assessed as bacterial growth inhibition by agar well diffusion method
[44] = system: Bacillus subtilis; experiment: Antibacterial activity against Bacillus subtilis assessed as bacterial growth inhibition by agar well diffusion method
[45] = system: Bacillus subtilis; experiment: Antibacterial activity against Bacillus subtilis assessed as bacterial growth inhibition by serial dilution method
[46] = system: Staphylococcus epidermidis; experiment: Antibacterial activity against Staphylococcus epidermidis assessed as bacterial growth inhibition by serial dilution method
[47] = system: Escherichia coli; experiment: Antibacterial activity against Escherichia coli MTCC 443 assessed as bacterial growth inhibition by broth microdilution method
[48] = system: Pseudomonas aeruginosa; experiment: Antibacterial activity against Pseudomonas aeruginosa MTCC 1688 assessed as bacterial growth inhibition by broth microdilution method
[49] = system: Streptococcus pyogenes; experiment: Antibacterial activity against Streptococcus pyogenes MTCC 442 assessed as bacterial growth inhibition by broth microdilution method
[50] = system: Staphylococcus aureus; experiment: Antibacterial activity against Staphylococcus aureus MTCC 96 assessed as bacterial growth inhibition by broth microdilution method
[51] = system: Staphylococcus aureus; experiment: Antibacterial activity against methicillin-resistant Staphylococcus aureus assessed as bacterial growth inhibition by agar dilution method
[52] = system: Escherichia coli; experiment: Antibacterial activity against Escherichia coli assessed as bacterial growth inhibition
[53] = system: Staphylococcus aureus; experiment: Antibacterial activity against Staphylococcus aureus assessed as bacterial growth inhibition
[54] = system: Bacillus subtilis; experiment: Antibacterial activity against Bacillus subtilis assessed as bacterial growth inhibition
[55] = system: Escherichia coli; experiment: Antibacterial activity against Escherichia coli JM109 assessed as bacterial growth inhibition incubated for 18 to 20 hrs by broth microdilution method; details: time 18-20 hrs
[56] = system: Bacillus subtilis; experiment: Antibacterial activity against Bacillus subtilis assessed as bacterial growth inhibition incubated for 18 to 20 hrs by broth microdilution method; details: time 18-20 hrs
[57] = system: Staphylococcus epidermidis; experiment: Antibacterial activity against Staphylococcus epidermidis assessed as bacterial growth inhibition by broth dilution method

Structure (SMILES): CC(=O)OC[C@@H]1O[C@H](n2cc(Cn3c(=O)cc(C)n(CCCCCCCC[P+](c4ccccc4)(c4ccccc4)c4ccccc4)c3=O)nn2)[C@@H](OC(C)=O)[C@H]1OC(C)=O.[Br-]
- MIC [1]: 1 µg/mL
- MIC [2]: 1 µg/mL
- Ratio [3]: 7.5

Structure (SMILES): CC(=O)OC[C@@H]1O[C@H](n2cc(Cn3c(=O)c4ccccc4n(CCCCCCCCCC[P+](c4ccccc4)(c4ccccc4)c4ccccc4)c3=O)nn2)[C@@H](OC(C)=O)[C@H]1OC(C)=O.[Br-]
- MIC [1]: 1 µg/mL
- MIC [2]: 1 µg/mL
- Ratio [3]: 7.5

Structure (SMILES): O=C(O)c1ccc(-n2cc(CNC(=O)c3cc4ccc(=O)oc4cc3O)nn2)cc1
- MIC [4]: 0.16 µg/mL (≈ 0.394 µM)
- MIC [5]: 0.65 µg/mL (≈ 1.6 µM)
- MIC [6]: 3.75 µg/mL (≈ 9.23 µM)

Structure (SMILES): COc1cccc2cc(C(=O)c3cn(-c4ccc(Cl)cc4)nn3)c(=O)oc12
- MIC [7]: 6.25 µg/mL (≈ 16.4 µM)
- MIC [8]: 6.25 µg/mL (≈ 16.4 µM)
- MIC [9]: 6.25 µg/mL (≈ 16.4 µM)
- Ratio [10]: 2
- Ratio [11]: 2
- Ratio [12]: 2

Structure (SMILES): C=C[C@]1(C)C[C@@H](OC(=O)CN2CCN(C(=O)Cn3cc(CN4CCN(c5ccc([N+](=O)[O-])cc5)CC4)nn3)CC2)[C@@]2(C)[C@@H]3C(=O)CC[C@@]3(CC[C@@H]2C)[C@@H](C)[C@@H]1O
- MIC [13]: 1 µg/mL (≈ 1.29 µM)
- MIC [14]: 1 µg/mL (≈ 1.29 µM)
- MIC [15]: 1 µg/mL (≈ 1.29 µM)
- MIC [16]: 1 µg/mL (≈ 1.29 µM)
- Ratio [17]: 2
- Ratio [18]: 2
- Ratio [19]: 2
- Ratio [20]: 2
- Activity [21]: -2.07 log10CFU/ml

Structure (SMILES): O=C(N[C@H](CO)[C@H](O)c1ccc([N+](=O)[O-])cc1)C(Cl)Cl [CHLORAMPHENICOL]
- MIC [22]: > 256 µg/mL
- MIC [23]: > 256 µg/mL
- MIC [24]: > 256 µg/mL
- MIC [25]: > 256 µg/mL
- MIC [26]: > 256 µg/mL
- Ratio [27]: >16
- Ratio [28]: >16
- Ratio [29]: >16
- Ratio [30]: >16
- Ratio [31]: >16
- MIC [32]: 11.6 µg/mL (≈ 35.9 µM)
- MIC [33]: 22.4 µg/mL (≈ 69.3 µM)

Structure (SMILES): O=C(O)c1cn(C2CC2)c2cc(N3CCNCC3)c(F)cc2c1=O [CIPROFLOXACIN]
- MIC [34]: 0.125 µg/mL (≈ 0.377 µM)
- MIC [35]: 1.56 µg/mL (≈ 4.71 µM)
- MIC [36]: 25 µg/mL (≈ 75.4 µM)
- MIC [37]: 6.25 µg/mL (≈ 18.9 µM)
- MIC [38]: 6.25 µg/mL (≈ 18.9 µM)
- MIC [39]: 6.25 µg/mL (≈ 18.9 µM)
- MIC [40]: 6.25 µg/mL (≈ 18.9 µM)
- MIC [8]: 12.5 µg/mL (≈ 37.7 µM)
- MIC [9]: 12.5 µg/mL (≈ 37.7 µM)
- MIC [41]: 12 µg/mL (≈ 36.2 µM)
- MIC [42]: 11 µg/mL (≈ 33.2 µM)
- MIC [43]: 0.5 µg/mL (≈ 1.51 µM)
- MIC [44]: 0.5 µg/mL (≈ 1.51 µM)
- MIC [45]: 25 µg/mL (≈ 75.4 µM)
- MIC [46]: 25 µg/mL (≈ 75.4 µM)
- MIC [47]: 24.9 µg/mL (≈ 75.1 µM)
- MIC [48]: 24.9 µg/mL (≈ 75.1 µM)
- MIC [49]: 24.9 µg/mL (≈ 75.1 µM)
- MIC [50]: 24.9 µg/mL (≈ 75.1 µM)

Structure (SMILES): COc1cc(/C=C/c2ccc(O)cc2)cc(OC)c1 [PTEROSTILBENE]
- MIC [51]: 41 µg/mL (≈ 160 µM)

Structure (SMILES): CN[C@@H]1[C@H](O[C@H]2[C@H](O[C@H]3[C@H](O)[C@@H](O)[C@H](N=C(N)N)[C@@H](O)[C@@H]3N=C(N)N)O[C@@H](C)[C@]2(O)C=O)O[C@@H](CO)[C@H](O)[C@H]1O [STREPTOMYCIN]
- MIC [52]: 6.25 µg/mL (≈ 10.7 µM)
- MIC [53]: 6.25 µg/mL (≈ 10.7 µM)
- MIC [1]: 9.36 µg/mL (≈ 16.1 µM)
- MIC [54]: 6.25 µg/mL (≈ 10.7 µM)
- MIC [4]: 1.89 µg/mL (≈ 3.25 µM)
- MIC [55]: 1 µg/mL (≈ 1.72 µM)
- MIC [56]: 2 µg/mL (≈ 3.44 µM)
- MIC [57]: 4.68 µg/mL (≈ 8.05 µM)

Reference: ChEMBL document CHEMBL5344406, “1,2,3-Triazole-containing hybrids with potential antibacterial activity against ESKAPE pathogens” (2022)
